Counter-ions that a name gives are not always drawn. Like-named read-outs stand apart in the source and are kept apart here.

Drawing on patent publication US20240150346A1, “CLASS OF HETEROAROMATIC COMPOUND, PREPARATION METHOD THEREFOR AND USE THEREOF” (INNOVSTONE THERAPEUTICS LIMITED, priority 2021, published 2024), this text covers EC50 for four molecules.

In this assay the target is T1, human-derived receptor TLR7 (Homo sapiens, UniProt Q9NYK1).
T1 construct: host or cells: HEK-Blue hTLR7 cells (HEK293-derived reporter line)
T1 sequence (Q9NYK1 27-1049): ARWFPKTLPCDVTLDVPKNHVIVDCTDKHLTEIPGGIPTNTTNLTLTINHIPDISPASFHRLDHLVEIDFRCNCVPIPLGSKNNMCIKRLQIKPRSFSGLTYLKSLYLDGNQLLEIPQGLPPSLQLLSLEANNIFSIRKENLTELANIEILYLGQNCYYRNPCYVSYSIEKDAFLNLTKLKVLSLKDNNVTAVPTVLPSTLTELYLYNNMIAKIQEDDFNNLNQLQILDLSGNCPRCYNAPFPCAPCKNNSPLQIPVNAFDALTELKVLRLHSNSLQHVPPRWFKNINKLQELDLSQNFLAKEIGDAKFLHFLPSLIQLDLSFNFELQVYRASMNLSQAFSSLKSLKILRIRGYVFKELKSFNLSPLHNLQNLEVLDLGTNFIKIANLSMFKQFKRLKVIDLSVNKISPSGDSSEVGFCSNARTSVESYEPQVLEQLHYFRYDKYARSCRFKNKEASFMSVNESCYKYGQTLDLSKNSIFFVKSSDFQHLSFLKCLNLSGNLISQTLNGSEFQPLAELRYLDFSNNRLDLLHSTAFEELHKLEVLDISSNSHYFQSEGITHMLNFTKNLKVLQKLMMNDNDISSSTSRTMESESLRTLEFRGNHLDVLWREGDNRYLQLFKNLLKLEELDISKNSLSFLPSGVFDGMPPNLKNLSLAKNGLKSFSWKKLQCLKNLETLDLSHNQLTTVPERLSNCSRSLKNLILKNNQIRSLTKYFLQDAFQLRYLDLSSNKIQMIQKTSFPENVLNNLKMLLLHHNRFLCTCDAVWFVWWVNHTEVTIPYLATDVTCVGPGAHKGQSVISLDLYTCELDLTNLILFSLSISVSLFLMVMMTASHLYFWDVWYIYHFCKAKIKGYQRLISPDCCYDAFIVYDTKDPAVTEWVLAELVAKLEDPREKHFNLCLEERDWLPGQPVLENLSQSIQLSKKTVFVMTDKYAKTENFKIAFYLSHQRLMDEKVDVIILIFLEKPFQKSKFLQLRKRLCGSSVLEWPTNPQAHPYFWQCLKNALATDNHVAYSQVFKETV
In words: Assay on agonistic activity for human-derived receptor TLR7 (HEK-Blue hTLR7 cells, HEK-Blue Detection Medium). It counts as cell-based. Particulars: 16 h incubation, absorbance at 655 nm. The method, then:
HEK-Blue™ hTLR7 cells (InvivoGen, hkb-htlr7) were cultured in a DMEM complete medium (Gibco, 12100) containing 10% FBS (Invitrogen, 10099141), 1% P/S (Invitrogen, 15140122), 10 μg/mL Blasticidin (InvivoGen, ant-bl-1), 100 μg/mL Zeocin (InvivoGen, ant-zn-1), and 100 μg/mL Normocin (InvivoGen, ant-nr-1). The cells were cultured in an incubator at 37° C. with 5% CO2. When HEK-Blue™ hTLR7 cells reached a growth density of 70%-80%, cell passage was needed.
The agonistic activity for the human-derived receptor TLR7 by HEK-Blue™ hTLR7 cells was assayed by HEK-Blue™ Detection Medium (InvivoGen, hd-det2). First, a bag of HEK-Blue™ Detection Medium powder was dissolved in 50 mL of ultra-pure sterile water for complete dissolution, and then the dissolved medium was filtered into a new 50 mL centrifuge tube through a 0.22 μm filter. Finally, antibiotics were added into the filtered detection medium until the final concentration was 1% for P/S and 100 μg/mL for Normocin. HEK-Blue™ Detection Medium was pre-heated to 37° C. in advance on the day of the assay on the activity for the TLR7 receptor, and the temperature was always maintained at 37° C.
The compound powder was dissolved in 100% DMSO (Sigma, D2650-100ML) to obtain a 10 mM stock solution, and the compound was completely dissolved by shaking with an oscillator. The stock solution of the compound was subjected to a 5-fold dilution to 2 mM with 100% DMSO. This was followed by a 3-fold serial dilution for a total of 8 concentration gradients. Then, each of the concentration gradients was subjected to a 20-fold dilution to 100 μM, 33.3 μM, 11.1 μM, 3.7 μM, 1.23 μM, […], 0.114 μM, and 0.05 μM using HEK-Blue™ Detection Medium. 20 μL of each of the dilutions was added to a 96-well cell culture plate (Corning, 3599).
On the day of the assay on the agonistic activity for the human-detived receptor TLR7, HEK-Blue™ hTLR7 cells has a growth density of 70%-80%, and the cell medium was removed. 1 mL of cell dissociation buffer (Gibco, 13151-014) was added to each 100 mm cell culture dish, and the cells were incubated in an incubator at 37° C. for 5 min. The cells were pipetted using a DMEM cell medium to obtain a single cell suspension, which was then centrifuged at 1000 rpm for 10 min to collect the cell pellet. The cell pellet was resuspended with HEK-Blue™ Detection Medium pre heated to 37° C. The cells were counted and diluted to 220,000 cells/mL. Finally, 180 μL of cell suspension (40,000 cells/well) was added to each well of the 96-well cell culture plate to which the compound had been added, and the cell suspension was mixed with the compound using a pipettor. Final concentrations of the compound were 10 μM, 3.3 μM, 1.1 μM, 0.37 μM, 0.12 μM, 0.04 μM, 0.01 μM, and 0.005 μM. After incubation in an incubator at 37° C. for 16 h, the absorbance was read at 655 nm using an M5e microplate reader (MD, USA).
The EC50 of the compound was calculated using the software GraphPad Prism (GraphPad Software, USA). The background reading of the detection culture was subtracted from the absorbance readings at 655 nm of all wells of the 96-well plate, the ratio of each well to the negative control well (the well without the compound) was calculated, and then the percentage of the ratio of each well to the positive control well (the well treated with 10 μM positive compound), i.e., the percentage of activity, was calculated. Finally, the sigmoidal dose-response (variable slope) curve between the percentage of activity and the concentration of the compound was calculated using the software GraphPad Prism to calculate the EC50 of the compound. […]

Consider `CSc1nc2c(N)nc3ccccc3c2n1Cc1ccc(N2CCN(C)CC2)nc1` [Example 199], for which the EC50 by setting is: (read-out: EC50) less than 50 nM; (read-out: hTLR7 EC50) 43.6 nM.
For the molecule `COc1nc2c(N)nc3ccccc3c2n1Cc1ccc(CN2CCCC2)cc1` [Comparative Example 1, 2-methoxy-1-((4-((pyrrolidin-1-yl)methyl)phenyl)methyl)-1H-imidazo[4,5-c]quinolin-4-amine trifluoroacetate, reference compound], the EC50 (read-out: hTLR7 EC50) was greater than 10000 nM.
As to `COc1cc(CN(C)C)ccc1Cn1c(SC)nc2c(N)nc3ccccc3c21` [Example 240], the EC50 (read-out: EC50) was less than 50 nM and the half-maximal effective concentration (EC50) (read-out: hTLR7 EC50) was 28.4 nM.
In the case of `CSc1nc2c(N)nc3ccccc3c2n1Cc1ccc(CN2CCCC2)cc1` [Example 40, 2-(methylthio)-1-(4-(pyrrolidin-1-ylmethyl)benzyl)-1H-imidazo[4,5-c]quinoline-4-amine], the EC50 is, setting by setting: (read-out: EC50) less than 50 nM; (read-out: hTLR7 EC50) 55 nM.

The EC50 is the concentration giving half of the maximal effect.
